This note sets out measurements from article PMC4959447 (Journal of medicinal chemistry, 2015).

SMILES strings stand for the structures. Where “and” joins values, the source holds several entries; their conditions need not be identical. Equal entries are not always repeated. Where two headings read alike, the source gives them in different places. A value given as a limit tells only on which side of the number the result lay.

The test system of one series is leukemia cell lines. Briefly: NCI-60 five-dose screen, leukemia sub-panel. Format: cell-based. The settings on record: Homo sapiens, read-out: GI50 values in the range.
Series [1] concerns panel of 60 human cancer cell lines. Nature of the series: NCI-60 five-dose screen, whole panel. Format: cell-based.
Series [2] deals with primary AML cell specimen AML03. Nature of the series: Primary AML cell assay. Format: cell-based. The settings on record: Homo sapiens, 24 h.
The test system of series [3] is primary AML cell specimens. Nature of the series: Primary AML cell assay, specimens taken together. Format: cell-based. Particulars: Homo sapiens.
A further series relates to M9-ENL1 cells. Nature of the series: M9-ENL1 cell assay. Format: cell-based. Particulars: M9-ENL1, 24 h.
The subject of series [4] is rat 9L-SF gliosarcoma cells. Briefly: Colony formation assay with 9L-SF cells.

Consider `C=C1C(=O)O[C@H]2[C@H]1CC/C(COC(=O)NCCCCNC(=O)OC/C1=C/CC[C@@]3(C)O[C@H]3[C@H]3OC(=O)C(=C)[C@@H]3CC1)=C\CC[C@@]1(C)O[C@@H]21` [7b, bis-E-(((1aR,7aS,10aS,10bS)-1a-Methyl-8-methylene-9-oxo-1a,2,3,6,7,7a,8,9,10a,10b-decahydrooxireno[2',3':9,10]cyclodeca[1,2-b]furan-5-yl)methyl)butane-1,4-diyldicarbamate], for which the 50% growth inhibitory concentration (GI50) in the series with leukemia cell lines lay in the range of 250 to 780 nM.
In the case of `C=C1C(=O)O[C@H]2[C@H]1CC/C(COC(=O)NCCCCCNC(=O)OC/C1=C/CC[C@@]3(C)O[C@H]3[C@H]3OC(=O)C(=C)[C@@H]3CC1)=C\CC[C@@]1(C)O[C@@H]21` [7c, bis-E-(((1aR,7aS,10aS,10bS)-1a-Methyl-8-methylene-9-oxo-1a,2,3,6,7,7a,8,9,10a,10b-decahydrooxireno[2',3':9,10]cyclodeca[1,2-b]furan-5-yl)methyl)pentane-1,5-diyldicarbamate], the GI50 in the series with leukemia cell lines lay in the range of 250 to 780 nM.
Take `C=C1C(=O)O[C@H]2[C@H]1CC/C(COC(=O)NCCCCCCCCNC(=O)OC/C1=C/CC[C@@]3(C)O[C@H]3[C@H]3OC(=O)C(=C)[C@@H]3CC1)=C\CC[C@@]1(C)O[C@@H]21` [7f, bis-E-(((1aR,7aS,10aS,10bS)-1a-Methyl-8-methylene-9-oxo-1a,2,3,6,7,7a,8,9,10a,10b-decahydrooxireno[2',3':9,10]cyclodeca[1,2-b]furan-5-yl)methyl)octane-1,8-diyldicarbamate]: the GI50 was 250 to 780 nM with leukemia cell lines; 160 to 999 nM in series [1] (60 cell, read-out: GI50 values in the nanomolar range, against most of the solid tumor cell lines in the 60 cell panel); < 500 nM in series [1] (read-out: GI50 values, against more than 50% of the cancer cell lines in the panel).
Consider `C=C1C(=O)O[C@H]2[C@H]1CC/C(COC(=O)OCCCCCOC(=O)OC/C1=C/CC[C@@]3(C)O[C@H]3[C@H]3OC(=O)C(=C)[C@@H]3CC1)=C\CC[C@@]1(C)O[C@@H]21` [7j, bis-E-(((1aR,7aS,10aS,10bS)-1a-Methyl-8-methylene-9-oxo-1a,2,3,6,7,7a,8,9,10a,10b-decahydrooxireno[2',3':9,10]cyclodeca[1,2-b]furan-5-yl)methyl)pentane-1,5-diyldicarbonate], for which the EC50 in series [2] stood at 1200 nM.
Consider `C=C1C(=O)O[C@@H]2[C@H]3O[C@]3(C)CC/C=C(\C)CC[C@@H]12` [compound 1, parthenolide], for which the EC50 in series [2] is 5000 nM; in series [3] (AML01, read-out: EC50 (range)), 2500 to 8000 nM; in series [3] (read-out: EC50 (range)) it was 2500 to 16000 nM.
The molecule `C=C1C(=O)O[C@H]2[C@H]1CC/C(COC(=O)OC/C1=C/CC[C@@]3(C)O[C@H]3[C@H]3OC(=O)C(=C)[C@@H]3CC1)=C\CC[C@@]1(C)O[C@@H]21` [compound 8, bis-E-(((1aR,7aS,10aS,10bS)-1a-Methyl-8-methylene-9-oxo-1a,2,3,6,7,7a,8,9,10a,10b-decahydrooxireno[2',3':9,10]cyclodeca[1,2-b]furan-5-yl)methyl) carbonate] showed an EC50 in the series with M9-ENL1 cells of 500 nM. In addition, the “fold more cytotoxic than DMAPT” value in series [4] (clonogenic survival, 48 h, at a concentration of 10 μM) is 1 × 10^6 fold and 1.08 × 10^6 fold. Also, the “fold more toxic than compound 7f” value in series [4] (colony formation assay, at 10 μM) is on record as 3,564 fold.

As usually defined, the GI50 is the concentration that inhibits growth by half. The term EC50 denotes the concentration giving half of the maximal effect.
